According to the supplement of paper PMC7661543:
± gives the standard deviation of the averaged measurements.

Key:
Experiment in all cases: relative cell number vs DMSO control (72 h) (% of DMSO); higher = less growth inhibition (more cells)
Details in all cases: sgRNA knockout: sgNT
SKBR3 = tested on: SKBR3
Experimental: (§1)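 QMAP-Seq: a pool of 5 breast cancer cell lines (ZR-75-1, SKBR3, HCC-38, MDA-MB-231, BT-20), each carrying 12 doxycycline-inducible Cas9 sgRNA perturbations (11 knockouts plus non-targeting sgNT), was treated with compounds for 72 h at four 10-fold doses (10 nM-10 uM or 1 nM-1 uM range). Barcodes were amplified and sequenced, and cell number was interpolated from 293T spike-in standard curves. The result is expressed as % of the median of DMSO wells. Two biological replicates.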

ZR-75-1 = tested on: ZR-75-1
Experimental: as §1

MDA-MB-231 = tested on: MDA-MB-231
Experimental: as §1

BT-20 = tested on: BT-20
Experimental: as §1

HCC-38 = tested on: HCC-38
Experimental: as §1

Compound	relative cell number (SKBR3; 1 nM)	relative cell number (SKBR3; 10 nM)	relative cell number (SKBR3; 100 nM)	relative cell number (SKBR3; 1000 nM)	relative cell number (ZR-75-1; 1 nM)	relative cell number (ZR-75-1; 10 nM)	relative cell number (ZR-75-1; 100 nM)	relative cell number (ZR-75-1; 1000 nM)	relative cell number (MDA-MB-231; 1 nM)	relative cell number (MDA-MB-231; 10 nM)	relative cell number (MDA-MB-231; 100 nM)	relative cell number (MDA-MB-231; 1000 nM)	relative cell number (BT-20; 1 nM)	relative cell number (BT-20; 10 nM)	relative cell number (BT-20; 100 nM)	relative cell number (BT-20; 1000 nM)	relative cell number (HCC-38; 1 nM)	relative cell number (HCC-38; 10 nM)	relative cell number (HCC-38; 100 nM)	relative cell number (HCC-38; 1000 nM)	relative cell number (SKBR3; 10000 nM)	relative cell number (ZR-75-1; 10000 nM)	relative cell number (MDA-MB-231; 10000 nM)	relative cell number (BT-20; 10000 nM)	relative cell number (HCC-38; 10000 nM)
CCNC(=O)c1noc(-c2cc(C(C)C)c(O)cc2O)c1-c1ccc(CN2CCOCC2)cc1 [NVPAUY922]	116 ± 31	78.6 ± 19	30 ± 8.8	18.5 ± 5.7	107 ± 6.7	89.8 ± 44	27.1 ± 1.1	25.7 ± 6.9	111 ± 40	71.4 ± 5.7	16 ± 4.2	9.36 ± 1.3	96.7 ± 24	81.1 ± 1.5	48 ± 3.7	37.9 ± 5.3	112 ± 16	67.6 ± 2.1	31.7 ± 5.1	30 ± 6	–	–	–	–	–
CC1(C)CCC(c2ccc(Cl)cc2)=C(CN2CCN(c3ccc(C(=O)NS(=O)(=O)c4ccc(N[C@H](CCN5CCOCC5)CSc5ccccc5)c(S(=O)(=O)C(F)(F)F)c4)cc3)CC2)C1 [Navitoclax]	–	74.6 ± 24	117 ± 33	50 ± 18	–	86.5 ± 10	95.5 ± 39	105 ± 11	–	93.9 ± 27	108 ± 6.7	93.9 ± 13	–	85.4 ± 11	90.6 ± 3.6	94.8 ± 3.5	–	96.9 ± 14	102 ± 12	76.6 ± 12	75.1 ± 14	81.5 ± 24	52.5 ± 7.4	78 ± 12	47.9 ± 1.3
CN1C(=O)C(Cc2c[nH]c3ccccc23)NC1=S (stereo not given) [Necrostatin1]	–	89.8 ± 11	92.2 ± 8.2	60.4 ± 1.4	–	76.9 ± 14	71.3 ± 29	78.3 ± 31	–	97.3 ± 20	79.2 ± 7.1	97.7 ± 25	–	110 ± 16	63.8 ± 8.2	82.9 ± 0.53	–	110 ± 12	92.5 ± 3.2	105 ± 2.8	68.6 ± 3.7	84.6 ± 35	64.1 ± 3	114 ± 14	91.2 ± 2.3
COc1nc(N)nc2c1ncn2[C@@H]1O[C@H](CO)[C@@H](O)[C@@H]1O [Nelarabine]	–	100 ± 31	85.8 ± 2.9	101 ± 6.9	–	85.5 ± 33	74.6 ± 23	81.7 ± 5.5	–	82 ± 19	95.5 ± 4.6	104 ± 23	–	90.5 ± 4.3	85.5 ± 1.7	94.9 ± 26	–	113 ± 3.4	96.7 ± 16	99 ± 21	91.7 ± 4.2	109 ± 7.7	72 ± 26	98 ± 15	109 ± 4.1
CCOc1cc2ncc(C#N)c(Nc3ccc(OCc4ccccn4)c(Cl)c3)c2cc1NC(=O)/C=C/CN(C)C [Neratinib]	–	92.7 ± 6.7	70.3 ± 1.5	27.1 ± 5.3	–	100 ± 32	73.9 ± 1.6	70.7 ± 6	–	98.3 ± 10	74.1 ± 4	91.24 ± 0.32	–	86.8 ± 7.5	99.2 ± 16	79.7 ± 16	–	85 ± 2.7	101 ± 7	95.9 ± 12	17.2 ± 0.58	47.4 ± 0.48	46.6 ± 1.1	51.4 ± 2.7	50 ± 3.4
